Test results: patent US10004701B2, “Methods and compositions for treating infection” (UNIVERSITY OF ROCHESTER, priority 2012, dated 2018)
Where a name gives a salt, the structure may show the parent alone. Read-outs that look alike come from different tables or passages of the source.

Assays:
Assay in all cases: AK assay 384-well format, Prestwick library screening
E. faecium = type: cell-based, Enterococcus faecium; conditions: 50 μM final drug concentration; for fold induction at 50 µM: Enterococcus faecium, 3 h
[1] = tested on: S. aureus strain USA300-0114; type: cell-based, Staphylococcus aureus; conditions: 50 μM final drug concentration; for fold induction at 50 µM: Staphylococcus aureus, USA300, 3 h
K. pneumoniae = type: cell-based, Klebsiella pneumoniae; conditions: 50 μM final drug concentration; for fold induction at 50 µM: Klebsiella pneumoniae, 3 h
[2] = tested on: A. baumannii strain 98-37-09; type: cell-based, Acinetobacter baumannii; conditions: 50 μM final drug concentration; for fold induction at 50 µM: Acinetobacter baumannii, 983709, 3 h
P. aeruginosa = type: cell-based, Pseudomonas aeruginosa; conditions: 50 μM final drug concentration; for fold induction at 50 µM: Pseudomonas aeruginosa, 3 h
E. cloacae = type: cell-based, Enterobacter cloacae; conditions: 50 μM final drug concentration; for fold induction at 50 µM: Enterobacter cloacae, 3 h
E. coli = type: cell-based, Escherichia coli; conditions: 50 μM final drug concentration; for fold induction at 50 µM: Escherichia coli, 3 h
[3] = planktonic, cutoff for positive 3-fold increase, read-out: AK-based Prestwick Library Screening Results, E. faecium (fold increase in extracellular AK activity)
[4] = planktonic, cutoff for positive 3-fold increase, read-out: AK-based Prestwick Library Screening Results, S. aureus (fold increase in extracellular AK activity)
[5] = planktonic, cutoff for positive 3-fold increase, read-out: AK-based Prestwick Library Screening Results, K. pneumoniae (fold increase in extracellular AK activity)
[6] = planktonic, cutoff for positive 3-fold increase, read-out: AK-based Prestwick Library Screening Results, A. baumannii (fold increase in extracellular AK activity)
[7] = planktonic, cutoff for positive 3-fold increase, read-out: AK-based Prestwick Library Screening Results, P. aeruginosa (fold increase in extracellular AK activity)
[8] = planktonic, cutoff for positive 3-fold increase, read-out: AK-based Prestwick Library Screening Results, E. cloacae (fold increase in extracellular AK activity)
[9] = planktonic, […], read-out: AK-based Prestwick Library Screening Results, E. coli (fold increase in extracellular AK activity)
[10] = cutoff for positive-scoring molecules 3-fold increase, read-out: AK-based Prestwick Library Screening Results, E. faecium (fold increase in extracellular AK activity)
[11] = cutoff for positive-scoring molecules 3-fold increase, read-out: AK-based Prestwick Library Screening Results, S. aureus (fold increase in extracellular AK activity)
[12] = cutoff for positive-scoring molecules 3-fold increase, read-out: AK-based Prestwick Library Screening Results, K. pneumoniae (fold increase in extracellular AK activity)
[13] = cutoff for positive-scoring molecules 3-fold increase, read-out: AK-based Prestwick Library Screening Results, A. baumannii (fold increase in extracellular AK activity)
[14] = cutoff for positive-scoring molecules 3-fold increase, read-out: AK-based Prestwick Library Screening Results, P. aeruginosa (fold increase in extracellular AK activity)
[15] = cutoff for positive-scoring molecules 3-fold increase, read-out: AK-based Prestwick Library Screening Results, E. cloacae (fold increase in extracellular AK activity)
[16] = cutoff for positive-scoring molecules 3-fold increase, read-out: AK-based Prestwick Library Screening Results, E. coli (fold increase in extracellular AK activity)
[17] = planktonic, cutoff for positive 3-fold increase

`CCCCc1oc2ccccc2c1C(=O)c1cc(I)c(OCCN(CC)CC)c(I)c1` [Amiodarone hydrochloride] showed a fold induction at 50 µM (E. faecium; planktonic E. faecium, 384-well, cutoff for positive-scoring molecules 3-fold increase, read-out: AK-based Prestwick Library Screening Results: E. faecium (increase in extracellular AK activity)) of 1.7, a fold induction at 50 µM ([1]; planktonic S. aureus, 384-well, cutoff for positive-scoring molecules 3-fold increase, read-out: AK-based Prestwick Library Screening Results: S. aureus (increase in extracellular AK activity)) of 0.7 and a fold induction at 50 µM (K. pneumoniae; planktonic K. pneumoniae, 384-well, cutoff for positive-scoring molecules 3-fold increase, read-out: AK-based Prestwick Library Screening Results: K. pneumoniae (increase in extracellular AK activity)) of 0.6. For the same compound, the fold induction at 50 µM ([2]; planktonic A. baumannii, 384-well, cutoff for positive-scoring molecules 3-fold increase, read-out: AK-based Prestwick Library Screening Results: A. baumannii (increase in extracellular AK activity)) was 2.2, the fold induction at 50 µM (P. aeruginosa; planktonic P. aeruginosa, 384-well, cutoff for positive-scoring molecules 3-fold increase, read-out: AK-based Prestwick Library Screening Results: P. aeruginosa (increase in extracellular AK activity)) was 0.5 and the fold induction at 50 µM (E. cloacae; planktonic E. cloacae, 384-well, cutoff for positive-scoring molecules 3-fold increase, read-out: AK-based Prestwick Library Screening Results: E. cloacae (increase in extracellular AK activity)) was 0.5. The fold induction at 50 µM (E. coli; planktonic E. coli, 384-well, cutoff for positive-scoring molecules 3-fold increase, read-out: AK-based Prestwick Library Screening Results: E. coli (increase in extracellular AK activity)) was 0.7.

With `COc1c2c(cc3c1OCO3)CCN(C)C2` [Hydrocotarnine hydrobromide] the fold induction at 50 µM (E. faecium; [3]) was 1, the fold induction at 50 µM [1, 4] was 1 and the fold induction at 50 µM (K. pneumoniae; [5]) was 0.9. The fold induction at 50 µM [2, 6] was 1.3, the fold induction at 50 µM (P. aeruginosa; [7]) was 1.2 and the fold induction at 50 µM (E. cloacae; [8]) was 1.4. For the same compound, the fold induction at 50 µM (E. coli; [9]) was 1.2.

With `O=C1c2c(O)ccc(O)c2C(=O)c2c(NCCNCCO)ccc(NCCNCCO)c21` [Mitoxantrone dihydrochloride] the fold induction at 50 µM (E. faecium; [3]) was 0.8, the fold induction at 50 µM [1, 4] was 0.7 and the fold induction at 50 µM (K. pneumoniae; [5]) was 1. For the same compound, the fold induction at 50 µM [2, 6] was 1.5, the fold induction at 50 µM (P. aeruginosa; [7]) was 0.9 and the fold induction at 50 µM (E. cloacae; [8]) was 1.2. It also gave a fold induction at 50 µM (E. coli; [9]) of 1.5.

`NC(=O)c1cc[n+](CC2=C(C(=O)O)N3C(=O)[C@@H](NC(=O)[C@@H](c4ccccc4)S(=O)(=O)[O-])[C@H]3SC2)cc1` [Cefsulodin sodium salt] gave a fold induction at 50 µM (E. faecium; planktonic, cutoff for positive-scoring molecules 3-fold increase, read-out: AK-based Prestwick Library Screening Results, E. faecium (fold increase in extracellular AK activity)) of 0.9, a fold induction at 50 µM ([1]; planktonic, cutoff for positive-scoring molecules 3-fold increase, read-out: AK-based Prestwick Library Screening Results, S. aureus (fold increase in extracellular AK activity)) of 1 and a fold induction at 50 µM (K. pneumoniae; planktonic, cutoff for positive-scoring molecules 3-fold increase, read-out: AK-based Prestwick Library Screening Results, K. pneumoniae (fold increase in extracellular AK activity)) of 0.7. For the same compound, the fold induction at 50 µM ([2]; planktonic, cutoff for positive-scoring molecules 3-fold increase, read-out: AK-based Prestwick Library Screening Results, A. baumannii (fold increase in extracellular AK activity)) was 1.1, the fold induction at 50 µM (P. aeruginosa; planktonic, cutoff for positive-scoring molecules 3-fold increase, read-out: AK-based Prestwick Library Screening Results, P. aeruginosa (fold increase in extracellular AK activity)) was 8.6 and the fold induction at 50 µM (E. cloacae; planktonic, cutoff for positive-scoring molecules 3-fold increase, read-out: AK-based Prestwick Library Screening Results, E. cloacae (fold increase in extracellular AK activity)) was 0.9. For the same compound, the fold induction at 50 µM (E. coli; planktonic, cutoff for positive-scoring molecules 3-fold increase, read-out: AK-based Prestwick Library Screening Results, E. coli (fold increase in extracellular AK activity)) was 0.9.

`CN(C)CC/C=C1\c2ccccc2CSc2ccccc21` [Dosulepin hydrochloride] gave a fold induction at 50 µM (E. faecium; planktonic E. faecium, cutoff for positive-scoring molecules 3-fold increase, read-out: AK-based Prestwick Library Screening Results, E. faecium (increase in extracellular AK activity)) of 0.9, a fold induction at 50 µM ([1]; planktonic S. aureus, cutoff for positive-scoring molecules 3-fold increase, read-out: AK-based Prestwick Library Screening Results, S. aureus (increase in extracellular AK activity)) of 0.5 and a fold induction at 50 µM (K. pneumoniae; planktonic K. pneumoniae, cutoff for positive-scoring molecules 3-fold increase, read-out: AK-based Prestwick Library Screening Results, K. pneumoniae (increase in extracellular AK activity)) of 0.5. The fold induction at 50 µM ([2]; planktonic A. baumannii, cutoff for positive-scoring molecules 3-fold increase, read-out: AK-based Prestwick Library Screening Results, A. baumannii (increase in extracellular AK activity)) was 0.5, the fold induction at 50 µM (P. aeruginosa; planktonic P. aeruginosa, cutoff for positive-scoring molecules 3-fold increase, read-out: AK-based Prestwick Library Screening Results, P. aeruginosa (increase in extracellular AK activity)) was 0.5 and the fold induction at 50 µM (E. cloacae; planktonic E. cloacae, cutoff for positive-scoring molecules 3-fold increase, read-out: AK-based Prestwick Library Screening Results, E. cloacae (increase in extracellular AK activity)) was 0.5. It also gave a fold induction at 50 µM (E. coli; planktonic E. coli, cutoff for positive-scoring molecules 3-fold increase, read-out: AK-based Prestwick Library Screening Results, E. coli (increase in extracellular AK activity)) of 0.6.

Work on `COc1cc(C(=O)OC2CC3CCC(C2)N3C)ccc1O` (stereo not shown) [Fillalbin] yielded a fold induction at 50 µM (E. faecium; [10]) of 1, a fold induction at 50 µM [1, 11] of 1 and a fold induction at 50 µM (K. pneumoniae; [12]) of 0.8. The fold induction at 50 µM [2, 13] was 0.9, the fold induction at 50 µM (P. aeruginosa; [14]) was 1.2 and the fold induction at 50 µM (E. cloacae; [15]) was 1.8. For the same compound, the fold induction at 50 µM (E. coli; [16]) was 1.2.

`CSc1ccc2c(c1)C(N1CCN(C)CC1)Cc1ccccc1S2.O=C(O)/C=C\C(=O)O` (stereo not shown) [Methiothepin maleate] was tested, and the “AK-based Prestwick Library Screening Results, E. faecium (fold increase in extracellular AK activity)” value (E. faecium; [17]) was 1.0, the “AK-based Prestwick Library Screening Results, S. aureus (fold increase in extracellular AK activity)” value [1, 17] was 1.3 and the “AK-based Prestwick Library Screening Results, K. pneumoniae (fold increase in extracellular AK activity)” value (K. pneumoniae; [17]) was 1.3. For the same compound, the “AK-based Prestwick Library Screening Results, A. baumannii (fold increase in extracellular AK activity)” value [2, 17] was 1.5, the “AK-based Prestwick Library Screening Results, P. aeruginosa (fold increase in extracellular AK activity)” value (P. aeruginosa; [17]) was 1.1 and the “AK-based Prestwick Library Screening Results, E. cloacae (fold increase in extracellular AK activity)” value (E. cloacae; [17]) was 1.8. The “AK-based Prestwick Library Screening Results, E. coli (fold increase in extracellular AK activity)” value (E. coli; [17]) was 1.4.

`CCN(CC)CCOC(=O)C(c1ccccc1)C1CCCCC1` (stereo not shown) [Drofenine hydrochloride] showed a fold induction at 50 µM (E. faecium; [10]) of 1, a fold induction at 50 µM [1, 11] of 1.5 and a fold induction at 50 µM (K. pneumoniae; [12]) of 1.2. The fold induction at 50 µM [2, 13] was 1.3, the fold induction at 50 µM (P. aeruginosa; [14]) was 1.2 and the fold induction at 50 µM (E. cloacae; [15]) was 1.5. It also gave a fold induction at 50 µM (E. coli; [16]) of 1.5.

`CCCC(C(=O)OCCN(CC)CC)(c1ccccc1)c1ccccc1` [Proadifen hydrochloride] was tested, and the fold induction at 50 µM (E. faecium; [10]) was 1.1, the fold induction at 50 µM [1, 11] was 0.8 and the fold induction at 50 µM (K. pneumoniae; [12]) was 0.8. For the same compound, the fold induction at 50 µM [2, 13] was 1.1, the fold induction at 50 µM (P. aeruginosa; [14]) was 1.1 and the fold induction at 50 µM (E. cloacae; [15]) was 1.7. It also gave a fold induction at 50 µM (E. coli; [16]) of 1.2.

Work on `Cc1cc(CC(=O)O)n(C)c1C(=O)c1ccc(Cl)cc1` [Zomepirac sodium salt] yielded a fold induction at 50 µM (E. faecium; [10]) of 1.1, a fold induction at 50 µM [1, 11] of 0.9 and a fold induction at 50 µM (K. pneumoniae; [12]) of 1. For the same compound, the fold induction at 50 µM [2, 13] was 1.1, the fold induction at 50 µM (P. aeruginosa; [14]) was 0.9 and the fold induction at 50 µM (E. cloacae; [15]) was 1.6. For the same compound, the fold induction at 50 µM (E. coli; [16]) was 1.1.
